Assay results taken from PubChem BioAssay (NCI).
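Growth conditions: 96-well plates. Treatment: test compound, 48 hours, 5 concentrations. Analysis: linear interpolation between bracketing concentrations; unreached endpoints set to highest concentration. TGI is the concentration that stops growth completely.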 Where a SMILES comes first, the peptide text is derived from it. [ ]: non-standard residue; d: D form. Phe(4-NO2) = N[CH](Cc1ccc([N+](=O)[O-])cc1)C(=O)O

Tests used:
Assay in all cases: NCI tumour cell line growth inhibition, 48 h
[1] = system: COLO 205 colon
[2] = system: SNB-19 CNS
[3] = system: KM12 colon
[4] = system: 786-0 renal
[5] = system: LOX IMVI melanoma
[6] = system: NCI-H460 lung
[7] = system: TK-10 renal
[8] = system: HCT-116 colon
[9] = system: HCT-15 colon
[10] = system: UACC-62 melanoma
[11] = system: SN12C renal
[12] = system: HS 578T breast
[13] = system: MOLT-4 leukemia
[14] = system: MDA-N
[15] = system: A549 NSCLC
[16] = system: SF-295 CNS
[17] = system: M14 melanoma
[18] = system: SR leukemia
[19] = system: BT-549 breast

Row | Structure (SMILES) | TGI [1] | TGI [2] | TGI [3] | TGI [4] | TGI [5] | TGI [6] | TGI [7] | TGI [8] | TGI [9] | TGI [10] | TGI [11] | TGI [12] | TGI [13] | TGI [14] | TGI [15] | TGI [16] | TGI [17] | TGI [18] | TGI [19]
1 | CCSc1cc2c(cc1O)CC[C@@H]1[C@@H]2CC[C@]2(C)[C@@H](O)CC[C@@H]12 | 32.3 µM | 25.5 µM | 21.9 µM | 24.5 µM | 23 µM | 19.2 µM | 62.3 µM | 32.7 µM | 23.2 µM | 27.7 µM | 35.1 µM | 17.9 µM | 21.2 µM | 7.66 µM | 15.5 µM |  |  |  | 
2 | O=C1CC2(CCC3=C(O2)c2ccccc2NC(=O)C3)C(=O)c2ccccc2N1 (stereo not given) | > 100 µM | > 100 µM | > 100 µM | > 100 µM | > 100 µM | > 100 µM | > 100 µM | > 100 µM | > 100 µM | > 100 µM | > 100 µM |  | > 100 µM |  | > 100 µM | > 100 µM | > 100 µM |  | 
3 | [N-]=[N+]=Nc1c(Cl)c(Cl)nc2ccccc12 | > 100 µM | > 100 µM | > 100 µM | > 100 µM | > 100 µM | > 100 µM | > 100 µM | > 100 µM | > 100 µM | > 100 µM | > 100 µM | > 100 µM | > 100 µM | > 100 µM | > 100 µM | > 100 µM | > 100 µM | > 100 µM | 
4 | CC(NC(=O)C(Cc1ccc([N+](=O)[O-])cc1)NC(=O)C(N)CCCCN)C(=O)NC(Cc1ccc([N+](=O)[O-])cc1)C(N)=O (stereo not given) (H-K[Phe(4-NO2)]A[Phe(4-NO2)]-NH2; configuration not given here) | > 100 µM | > 100 µM | > 57.4 µM | > 100 µM | > 100 µM | > 100 µM | > 100 µM | > 100 µM | > 100 µM | > 100 µM | > 100 µM | 99.6 µM | > 59.4 µM |  | > 97 µM | > 70.9 µM | > 74.3 µM |  | > 54 µM
5 | C=C(C)[C@@]1(O)CCCC[C@@H]1CC(Sc1ccccc1)Sc1ccccc1 | 31 µM | 38.3 µM | 35.1 µM | 39.9 µM | 31.2 µM | 29.4 µM | 30 µM | 30.2 µM | 33.3 µM | > 100 µM | 32.4 µM | 35.1 µM | 32.5 µM | 47.8 µM | 34.4 µM | 32.8 µM | 39.3 µM | 34.8 µM | 
6 | CN(C)CCNC(=O)c1cccc2c(NC(CS)C(=O)O)c3ccccc3[n+](C)c12 (stereo not given) | > 100 µM | > 100 µM | > 100 µM | > 100 µM | > 100 µM | > 100 µM | > 100 µM | > 100 µM | > 100 µM | > 100 µM | > 100 µM | > 100 µM | > 100 µM |  | > 100 µM | > 100 µM | > 100 µM | > 100 µM | 98.2 µM
7 | CCOC(=O)C1(C(=O)OCC)C[C@@H](C)[C@@H](O)C1 | > 100 µM | > 100 µM | > 100 µM | > 100 µM | > 100 µM | > 100 µM | > 100 µM | > 100 µM | > 100 µM | > 100 µM | > 100 µM | > 100 µM | > 100 µM | > 100 µM | > 100 µM | > 100 µM | > 100 µM | > 100 µM | 
8 | O=C(CC(C(=O)c1cccs1)c1ccsc1)c1ccccc1 (stereo not given) | > 100 µM |  | > 100 µM | > 100 µM | > 100 µM | > 100 µM | > 100 µM | > 100 µM | > 100 µM | > 100 µM | > 100 µM | > 100 µM | > 100 µM | > 100 µM | 66.2 µM | > 100 µM | > 100 µM | > 100 µM | 
9 | O=C(O)c1nc2ccc(C(F)(F)F)cc2nc1NCc1ccc(Cl)c(Cl)c1 | 37.4 µM | 25.1 µM | 33.8 µM | 29.3 µM | 29.8 µM | 30.8 µM |  | 29.7 µM | 36.5 µM | 32.5 µM | 28.8 µM |  | 34.2 µM | 35.1 µM | 29.7 µM | 37.2 µM | 31.6 µM | 36.5 µM | 33.1 µM
10 | O=c1cc(CSc2c(-c3ccccc3)c(=O)n(-c3ccccc3)c(=S)n2-c2ccccc2)[nH]c(=O)[nH]1 | > 100 µM | > 100 µM | > 100 µM | > 100 µM |  | > 100 µM | > 100 µM | > 100 µM | > 100 µM | > 100 µM | > 100 µM |  | > 100 µM | > 100 µM | > 100 µM |  | > 100 µM | > 100 µM | > 100 µM
11 | COC(=O)c1ccccc1CC(Cc1ccc2c(c1)CCC2)C(=O)OC (stereo not given) | > 100 µM | > 100 µM | > 100 µM | > 100 µM | > 100 µM | > 100 µM | > 100 µM | > 100 µM | > 100 µM |  | > 100 µM | > 100 µM | > 100 µM | > 100 µM | > 100 µM | > 100 µM | > 100 µM | > 100 µM | 
12 | CC1CC/C(=C\c2ccc(N(C)C)cc2)C2=C1C(c1ccc(N(C)C)cc1)NC(=S)N2 (stereo not given) | > 100 µM | > 100 µM | > 100 µM | > 100 µM | > 100 µM |  | > 100 µM | > 100 µM | > 100 µM | > 100 µM | > 100 µM | > 100 µM | > 100 µM | > 100 µM |  | > 100 µM | > 100 µM |  | > 100 µM
13 | CC(=O)O[C@@H]1C(=O)N(c2ccccc2)[C@@H]1c1cc2ccccc2c2ccccc12 | 32.3 µM | > 100 µM | > 100 µM | > 100 µM | 64.3 µM | > 100 µM | > 100 µM | 91 µM | > 100 µM | > 100 µM | > 100 µM | > 100 µM | 56 µM | > 100 µM | > 100 µM | > 100 µM | > 100 µM | 52.9 µM | 
